Reference: patent publication EP4583874B1, “MULTITARGET NUCLEAR RECEPTOR LIGANDS BASED ON 2-(4-(QUINOLIN-2-YLOXY)PHENOXY)PROPANOIC ACID AND 2-(4-(QUINOXALIN-2-YLOXY)PHENOXY)PROPANOIC ACID FOR THE TREATMENT OF METABOLIC AND LIVER DISEASES” (CHARLES UNIVERSITY, FACULTY OF PHARMACY IN HRADEC KRALOVE, priority 2022, dated 2024)

How the values were obtained:
[1] = biological target: T1, human FXR (Homo sapiens, UniProt Q96RI1); test: FXR responsive luciferase reporter gene assay (FXRE-luc + human FXR expression construct) in HepG2 cells; type: cell-based; conditions: HepG2, 24 h
T1 construct: expressed in transfected cells; host or cells: HepG2
T1 sequence (Q96RI1 1-486): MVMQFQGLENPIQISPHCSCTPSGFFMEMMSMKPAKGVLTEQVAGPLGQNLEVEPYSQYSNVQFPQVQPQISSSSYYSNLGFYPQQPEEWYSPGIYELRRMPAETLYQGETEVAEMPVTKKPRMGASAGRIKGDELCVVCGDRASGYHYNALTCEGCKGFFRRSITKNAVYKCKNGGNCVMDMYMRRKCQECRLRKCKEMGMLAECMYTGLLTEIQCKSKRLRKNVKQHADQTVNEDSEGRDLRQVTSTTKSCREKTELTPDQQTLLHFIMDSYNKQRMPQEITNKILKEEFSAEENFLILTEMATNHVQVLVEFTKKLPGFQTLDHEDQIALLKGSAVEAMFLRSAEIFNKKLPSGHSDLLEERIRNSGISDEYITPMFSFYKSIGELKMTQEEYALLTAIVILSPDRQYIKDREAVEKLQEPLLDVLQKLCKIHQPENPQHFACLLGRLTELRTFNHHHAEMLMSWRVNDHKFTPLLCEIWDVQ
Description: (§1) In HepG2 cells, luciferase gene reporter assays have been performed with the transiently transfected reporter gene luciferase construct with the UAS yeast binding site interacting with GAL4 protein (pGL5-UAS 9x, Promega). DNA constructs encoding human LBD domains of human PPARα, PPARγ, of LXRα (pGAL4-PPARα, pGAL4-PPARγ, pGAL4-LXRα) have been cotransfected with the reporter construct. For FXR, FXRE-luc construct with FXR response elements upstream of Firefly luciferase has been used together with an expression construct for human FXR for HepG2 cells transfection. HepG2 cells were then treated with compounds of the invention for 24 h.

[2] = biological target: T2, TGR5 (Homo sapiens, UniProt Q8TDU6); test: TGR5 luciferase reporter assay; type: cell-based; conditions: relative activation to LCA 10 µM (100%), negative value indicates inverse agonism
T2 sequence (Q8TDU6 1-330): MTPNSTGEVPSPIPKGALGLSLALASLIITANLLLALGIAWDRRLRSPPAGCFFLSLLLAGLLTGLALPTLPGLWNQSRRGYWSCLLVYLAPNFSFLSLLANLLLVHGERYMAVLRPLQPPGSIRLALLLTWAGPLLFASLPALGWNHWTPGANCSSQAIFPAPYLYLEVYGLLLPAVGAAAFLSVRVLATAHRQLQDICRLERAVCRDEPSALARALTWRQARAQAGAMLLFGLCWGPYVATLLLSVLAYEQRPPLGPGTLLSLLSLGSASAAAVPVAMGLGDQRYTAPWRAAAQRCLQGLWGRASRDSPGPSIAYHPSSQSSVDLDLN

[3] = biological target: T3, human PPARγ (Homo sapiens, UniProt P37231); test: PPARγ luciferase reporter gene assay (pGAL4-PPARγ / pGL5-UAS 9x) in HepG2 cells; type: cell-based; conditions: HepG2, 24 h
T3 construct: DNA constructs encoding human LBD domains of human PPARα, PPARγ, of LXRα (pGAL4-PPARα, pGAL4-PPARγ, pGAL4-LXRα); expressed in transfected cells; host or cells: HepG2
T3 sequence (P37231 238-503 limits assumed): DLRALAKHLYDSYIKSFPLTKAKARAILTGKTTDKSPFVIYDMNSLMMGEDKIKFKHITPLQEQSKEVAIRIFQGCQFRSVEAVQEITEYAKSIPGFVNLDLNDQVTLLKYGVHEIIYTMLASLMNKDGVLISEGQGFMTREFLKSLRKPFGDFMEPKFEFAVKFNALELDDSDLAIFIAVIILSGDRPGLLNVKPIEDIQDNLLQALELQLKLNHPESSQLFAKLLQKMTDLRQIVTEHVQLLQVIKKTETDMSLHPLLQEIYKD

[4] = system: C57BL/6J mice; test: Pilot study in mice, liver mRNA expression by RT-qPCR; type: in vivo; conditions: 3x 30 mg/kg p.o. gavage, liver 24 h after last application, vs vehicle
Experimental: Compounds 35 and 37 have been applied three times after 24 h (3x 30 mg/kg) via p.o. gavage to wild-type C57BL/6J mice. After 24 h from the last application, mice were sacrificed, and live samples collected on dry ice for total RNA isolation. RT-qPCR experiments have been performed with TaqMan probes and expression has been quantified using a reference gene (beta-actin and Gapdh) and delta-delta method. Data represents fold up or downregulation in mRNA expression for tested genes related to the expression in vehicle-treated control animals. * - statistically significant (p<0.05) up- or down- regulation in animals treated with tested compounds (n=4).
In the pilot study, compounds of the invention 37 and 35 were applied by per os probe (gavage) to male mice of age 15 weeks (n=4 per group) three times (3 x 30 mg/kg b.w.) in 1%PEG300/methylcellulose solution (compounds of EXAMPLE 37or 35). Livers were sampled 24 hours after application into liquid nitrogen for total RNA insolation and for qRT-PCR analysis (Quantstudio 7 HT Fast Real-Time PCR System).
(§2) Expressions of NR target genes mRNAs in livers of mice or in 3D cultured (spheroids) primary human hepatocytes have been performed using TaqMan probes-based RT-qPCR after isolation of total RNA by Trizol® (ThermoFischer Scientific) reagent and reverse transcription synthesis of cDNA in Quant Studio cycler. Real-time qPCR TaqMan probes have been purchased prom ThermoFisher scientific (Cat. No. 4351372 and 433118). Delta-delta method and Gapdh or TATA-box binding protein (TBP) housekeeping genes were used for relative quantification. Data are expressed as fold up-/down-regulation compared to vehicle-treated samples/mice.

[5] = system: 3D primary human hepatocyte spheroids; test: Gene expression in 3D primary human hepatocyte spheroids by RT-qPCR; type: cell-based; conditions: 3D spheroids of primary human hepatocytes (JEL donor), 72 hours
Description: After the interval, spheroid have been subjected to RNA isolation and RT-qPCR was used to analyse mRNA expression using specific TaqMan probes. Expression has been quantified using a reference gene (TBP) and delta-delta method. Data represents fold up or downregulation in mRNA expression for tested genes (column) related to the expression in vehicle-treated controls (equal to 1, white color).
Human hepatocellular carcinoma HepG2 cell line was purchased from the European Collection of Cell Cultures (ECACC, Salisbury, UK). Primary human hepatocytes (donor) have been purchased from BioIV, Royston, UK.
as §2

[6] = biological target: T4, human PPARα (Homo sapiens, UniProt Q07869); test: PPARα responsive luciferase reporter gene assay (pGAL4-PPARα / pGL5-UAS 9x) in HepG2 cells; type: cell-based; conditions: relative activation to fenofibrate 10 µM (100%), HepG2, 24 h, negative value indicates inverse agonism
T4 construct: DNA constructs encoding human LBD domains of human PPARα, PPARγ, of LXRα (pGAL4-PPARα, pGAL4-PPARγ, pGAL4-LXRα); expressed in transfected cells; host or cells: HepG2
T4 sequence (Q07869 239-466 limits assumed): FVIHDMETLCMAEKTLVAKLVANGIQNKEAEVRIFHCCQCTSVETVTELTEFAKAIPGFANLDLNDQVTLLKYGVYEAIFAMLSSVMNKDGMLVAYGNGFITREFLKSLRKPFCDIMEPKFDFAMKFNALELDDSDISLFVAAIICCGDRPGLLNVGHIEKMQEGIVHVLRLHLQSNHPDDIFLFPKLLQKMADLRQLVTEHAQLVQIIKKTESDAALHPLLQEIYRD
Description: Bezafibrate, GW7647 and WY14643 are known PPARα ligands. […] GW3965 is known high-affinity LXRα ligand. […]
as §1

[7] = biological target: T5, human LXRα (Homo sapiens, UniProt Q13133); test: LXRα luciferase reporter gene assay, inhibition of activation by GW3965 (pGAL4-LXRα / pGL5-UAS 9x) in HepG2 cells; type: cell-based; conditions: HepG2, 24 h; read-out: LXRα antagonism
T5 construct: DNA constructs encoding human LBD domains of human PPARα, PPARγ, of LXRα (pGAL4-PPARα, pGAL4-PPARγ, pGAL4-LXRα); expressed in transfected cells; host or cells: HepG2
T5 sequence (Q13133 209-447 limits assumed): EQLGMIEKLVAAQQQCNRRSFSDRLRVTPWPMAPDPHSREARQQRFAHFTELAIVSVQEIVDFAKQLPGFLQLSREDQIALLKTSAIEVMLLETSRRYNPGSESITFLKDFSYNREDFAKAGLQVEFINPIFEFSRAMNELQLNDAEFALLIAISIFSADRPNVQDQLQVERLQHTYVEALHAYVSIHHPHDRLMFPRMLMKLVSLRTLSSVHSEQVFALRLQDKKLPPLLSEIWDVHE
Experimental: Bezafibrate, GW7647 and WY14643 are known PPARα ligands. […] GW3965 is known high-affinity LXRα ligand.
Inverse agonistic/antagonistic activities of tested compounds to LXRα receptor activated by the LXRα agonist GW3965(10 µM). […] Negative value indicates inverse agonism.
as §1

Row | Structure (SMILES) | Emax at 10 µM [1] | Emax at 10 µM [2] | Emax at 10 µM [3] | Cyp7a1 expression in the mouse liver [4] | Fasn gene expression in the mouse liver [4] | Pck1 gene expression in the mouse liver [4] | cholesterol efflux transporters Abcg5/8 expression in the mouse liver [4] | key protein involved in fatty acid (beta) oxidation, mRNA expression in the mouse liver [4] | effect on some critical genes involved in fatty acid oxidation in comparison with fenofibrate [5] | genes involved in fatty acid catabolism ([5]; combined effect of obeticholic acid and TFCA) | Emax at 10 µM [6] | inhibition at 10 µM [7]
1 | C[C@@H](Oc1ccc(Oc2ccc3ccc(Cl)cc3n2)cc1)C(=O)O [compound 35, (R)-2-(4-((7-Chloroquinolin-2-yl)oxy)phenoxy)propanoic acid] | 4% | 5% | 4% | down-regulates | down-regulate | down-regulate | down-regulates | up-regulate | augmented effect | suitable upregulation | 117% | 63%
2 | C[C@@H](Oc1ccc(Oc2ccc3c(Br)cccc3n2)cc1)C(=O)O [compound 40, (R)-2-(4-((5-Bromoquinolin-2-yl)oxy)phenoxy)propanoic acid] | 89% | 16% | 1% | – | – | – | – | – | – | – | 0% | 48%
